We go through two molecules from patent US20080220416A1, “Compositions for Inhibiting Cell Growth and Inducing Apoptosis in Cancer Cells and Methods of Use Thereof” (THE BOARD OF TRUSTEES OF THE UNIVERSITY OF ILLINOI, priority 2004, published 2008).

What all share (assay type): cell-based, human
For series [1], the system named is MDA-MB231 breast cancer cells. As to the kind of experiment: Extracellular matrix invasion of MDA-MB231 cells (Matrigel Invasion Chambers). As to conditions: 25 μM, 22 h. As for the experimental part: (§1) Cytotoxicity and growth of transfected cells were estimated by a standard assay used for cancer drug screening, through the total amount of TCA-precipitated cell proteins after drug treatment (Likhitwitayawuid, K et al., 1993, J Nat Prod 56:30-38): 200 μl of cell suspension (10^5 cells/ml) were added to each well in a 96-well plate. After incubation at, 37° C., in 5% CO2 (30 minutes to 72 hours depending on the time course chosen), 50 μl 50% trichloroacetic acid was added to each well. After incubation at 4° C. for 1 hour, precipitates were washed with water 4-5 times and air dried overnight. One hundred μl of SRB solution (0.4% sulforhodamine B in 1% acetic acid, filtered before use) was added to each well for 30 minutes. Wells were washed with 1% acetic acid 4-5 times and air dried. Two hundred μl 10 mM Tris base was added to each well. Plates were shaken for 5-10 minutes and OD at 490 nm (OD490) was recorded via ELISA reader. To assay matrix invasion, 300 μl of cell suspension (10^6 cells/mL in serum-free medium) were added to invasion inserts (BioCoat Matrigel Invasion Chambers, Becton Dickinson, Bedford, Mass.) and incubated for 22 hours at 37° C., 5% CO2. Cells were stained with 0.9% crystal violet in 10% ethanol for 20 minutes. Inserts were dipped in water several times and air dried. After removal of the non-invading cells from the interior of the inserts, stained invading cells were lysed in 10% acetic acid and OD595 was determined.
Notch silencing was confirmed by Western blot as described above in Example 15 using commercial goat polyclonal antibodies from Santa Cruz Biotechnology to Notch-1 (C-20, Cat# sc-6014 S). For the Western blot analyses, MDA-MB231 cells were treated with 25 μM IL-X for 48 h or with 0.5, 1 or 2 μM z-Leu-Leu-Nle-CHO for 24 h. Cytotoxicity and matrix invasion assays were performed as described above in Example 15. For the cytotoxicity assays, MDA-MB231 cells were treated with […] IL-X for up to 3 days or with 0-20 μM z-Leu-Leu-Nle-CHO for up to 4 days. […]

For the next series, the system named is Notch-1. As to the kind of experiment: Notch Western blot in MDA-MB231 cells. As to conditions: MDA-MB231; 25 μM; 48 hours. As for the experimental part: Notch silencing was confirmed by Western blot using commercial goat polyclonal antibodies from Santa Cruz Biotechnology to Notch-1 (C-20, Cat# sc-6014 S) and Notch-4 (C-19, Cat# sc-8644). Total cell lysates were prepared as follows: cells grown on 6 cm dishes were scraped in lysis buffer containing 1×PBS, 1% Nonidet P40, 0.5% deoxycholate, 0.1% SDS, freshly added aprotinin (45 μg/ml), phenylmethylsulfonyl fluoride (10 μg/ml), and sodium orthovanadate (10 μM). Lysates were sonicated 4 times for 5 seconds each, followed by 30 minutes incubation on ice. Lysates were centrifuged at 10,000 g for 20 minutes at 4° C. Supernatants were used as total cell lysates. Nuclear extracts were prepared as follows: 10,000,000 cells were pelleted, washed, and quickly frozen in a dry ice bath. Pellets were thawed by adding 100 μl of buffer 1 (10 mM HEPES, pH 7.9, 10 mM KCl, 1.5 mM MgCl2, 1 mM DTT). Nuclei were pelleted and lysed in 15 μl Buffer 2 (20 mM HEPES, pH7.9, 0.4 M NaCl, 1.5 mM MgCl2, 25% glycerol, 0.2 mM EDTA, 1 mM DTT, and 0.5 mM PMSF). Lysates were diluted in 50-70 μl Buffer 3 (20 mM HEPES, pH 7.9, 50 mM KCl, 20% glycerol, 0.2 mM EDTA, 1 mM DTT, 0.5 mM PMSF). Protein concentrations were estimated using the BCA protein assay (Pierce). Supernatants were boiled in reducing SDS sample buffer (Novex). Twenty μg protein per lane were run on a 3-8% Tris acetate gel (Invitrogen) in Tris Acetate Reducing Running Buffer (Novex). Protein bands were transferred onto PVDF membranes (BioRad) using transfer buffer (Novex). Membranes were then blocked overnight at 4° C. in 2% blocking solution in TBS (Roche). Primary antibodies were diluted in 2% Boehringer blocking solution (total volume 5 ml). Membranes were incubated for one hour at room temperature with shaking, then washed 6 times for 10 minutes each in TBS wash buffer. Membranes were incubated in secondary antibody in 2% of blocking solution for 30 minutes, then washed 6 times for 10 minutes each at RT in wash buffer. Bands were detected with chemiluminescent reagent (Roche) according to the manufacturer's directions. […]
For orientation: A western blot detects proteins with antibodies after separation by electrophoresis.

Series [2] has as its system MDA-MB231 breast cancer cells. As to the kind of experiment: Cytotoxicity and growth assay in MDA-MB231 breast cancer cells (SRB, TCA-precipitated protein). Conditions: MDA-MB231; up to 3 days. The method, then: An invasive, estrogen-independent breast cancer cell line that spontaneously expresses high levels of Notch-1 and -4, MDA-MB231, and normal human breast cells were used to investigate whether inhibition of Notch activation or expression affects the biological behavior of breast cancer cells. Human Mammary Epithelial Cells (HMEC) were purchased from Clonetics and cultured in mammary epithelial cell basal medium (MEBM) supplemented with 52 μg/ml Bovine Pituitary Extract […], […] human recombinant Epidermal Growth Factor (hEGF), 5 μg/ml insulin, 0.5 μg/ml Hydrocortisone, 50 μg/ml Gentamicin and 50 μg/ml Amphotericin-B. MDA-MB231 (ATCC, Rockville, Md.) were cultured in DMEM medium with 10% FBS. Notch expression in HMEC and MDA-MB231 cells was silenced using highly specific RNAi. Double-stranded synthetic 21-mer RNA oligonucleotides (siRNAs) were purchased from Dharmacon (Lafayette, Colo.). […] Sequence specificity was determined by BLAST searches which determined the uniqueness of the sequences. Transfection of siRNAs was performed using Oligofectamine (Invitrogen) as recommended by the siRNA manufacturer (Dharmacon). Transfection efficiency was optimized and followed on parallel wells using DNA double stranded oligos of identical sequence to the siRNAs, labeled with biotin on one strand. Transfected cells were identified by Streptavidin-horseradish peroxidase staining (Vectastain) and counted. Transfection efficiencies around 80% were routinely obtained.
as §1, with “Cells were stained with 0.9% crystal violet in 10% ethanol for 20 minutes. Inserts were dipped in water several times and air dried.” left out, “determined. […]” for “determined.”

The subject of the next series is normal melanocytes. The series is described as follows: Proteasome inhibitors, apoptosis of normal melanocyte cultures (Annexin V FITC flow cytometry). As to conditions: MC-005, MC-006, MC-008; 24 hrs; 1, 5 or 10 μM. As for the experimental part:
(§2) The proteasome inhibitors lactacystin, MG-132, and bortezomib were evaluated for the ability to induce apoptosis in malignant melanoma cell lines (n=3) including an early passage line, RJ002L. MG-132 was obtained from Calbiochem (La Jolla, Calif.) and dissolved in DMSO. Lactacystin was purchased from Sigma Chemical Co. (St. Louis, Mo.) and dissolved in PBS. Bortezomib was obtained from a pharmacy as VELCADE (bortezomib) for Injection from a single use vial for intravenous use only (Millennium Pharmaceuticals, Cambridge, Mass.). A cell line with wild-type p53 (RJ002L) and two melanoma cell lines with mutant p53 alleles (C8161 and MUM2B) were included in this study. Two additional melanoma cell lines were also used: cutaneous SK-MeI-28 cells and primary, early passage MG012 cells. In addition, five normal melanocyte culture cell lines (MC-005, MC-006, MC-008, MC-009 and MC-011) were examined. Prior to testing, the melanoma cell lines were maintained in RPMI supplemented with 10% FBS. Normal human melanocytes were isolated from neonatal foreskins as previously described (Qin J et al., 2004, Mol Cancer Ther 3:895-902, 2004) and cultured with medium 154 containing growth supplements (Cascade Biologics, Portland, Oreg.).
To assess the effect of proteasome inhibitors on the cell lines, the cells were grown in suitable culture media as described above. […]
Following treatment with the proteasome inhibitors, the melanoma and melanocyte cell cultures were assayed for apoptotic cells using the APO TARGET Annexin V FITC staining kit (Biosource, Camarillo, Calif.) according to the manufacturer's instructions followed by flow cytometric analysis using FACScaliber (Becton Dickinson, Palo Alto, Calif.) as described in Qin, J. et al., 2001, Nat Med 7: 385-386. In some cases, cell cycle and apoptosis analysis was measured using propidium iodide staining and flow cytometry as described. […] For cell analysis, DNA histograms were analyzed using MultiCycle for Windows (Phoenix Flow Systems, San Diego, Calif.) as described in Denning, M. F. et al., 1998, J Biol Chem 273: 29995-30002.
Background: A flow cytometer gives signals particle by particle.

Series [3] deals with NOXA. The series is described as follows: Western blot of NOXA after proteasome inhibitors in melanoma cells. As to conditions: RJ002L, C8161, MUM2B; 1 μM or 10 μM; 18 hrs. The text has this: (§3) A panel of melanoma cells were used to assess the effect of bortezomib on pro-apoptotic proteins. RJ002L, C8161, MUM2B and SK-MeI-28 melanoma cells, as well as two normal melanocyte cultures (MC-010 and MC-012) were examined. Prior to testing, the RJ002L melanoma cell lines were maintained in RPMI supplemented with 10% FBS. Late passage melanoma cell lines (C8161, MUM2B and SK-Me1028) were utilized as previously described (Welch D et al., 1991, Int J Cancer 47:227-237; Bittner M et al., 2000, Nature 406:536-540). Normal human melanocytes were isolated from neonatal foreskins and cultured as previously described (Qin J et al., 2004, Mol Cancer Ther 3:895-902). Proliferating cells were examined by Western blot analysis before and after 18 hrs of exposure to bortezomib (1 μM). Antibodies were obtained as follows: Bad (SC-8044), Bcl-2 (SC-7382), Bcl-xL (SC-634), Mcl-1 (SC-819), Bak (SC-832) from Santa Cruz Biotechnology (Santa Cruz, Calif.); NOXA (OP180) from Calbiochem; Bid, Bim and PUMA from Cell Signaling (Beverly, Mass.); BAX from Upstate (Charlottesville, Va.); and β-actin from ICN (Irvine, Calif.). For the Western blot analysis, whole cell extracts were prepared as previously described (Denning M et al., 1998, J Biol Chem 273:29995-30002). Briefly, cells were harvested by scraping monolayers and washed with PBS. Cell pellets were resuspended in CHAPS buffers containing a protease inhibitor cocktail. Extracts were vigorously shaken at 4° C. for 15 min followed by centrifugation. Supernatants were collected and protein concentration determined using Bio-Rad reagent. Thirty to 50 microgram protein samples were resolved by SDS-polyacrylamide gel electrophoresis and transferred to polyvinylidene difluoride membrane by electroblotting. Membranes were probed with the various primary antibodies overnight at 4° C., followed by detection using ECL reagents (Amersham Pharmacia Biotech, Piscataway, N.J.) according to manufacturer's instructions.
(§4) Two other proteasome inhibitors, lactasytsin and MG-132, were tested for the ability to induce NOXA in melanoma cells and melanocytes. […]

Series [4] deals with NOXA. The series is described as follows: Western blot of NOXA after proteasome inhibitors in normal melanocytes. As to conditions: MC-004, MC-005, MC-006, MC-008; 1 μM or 10 μM; 18 hrs.
Source text: as §3, §4

The next series relates to melanoma cell lines. The series is described as follows: Proteasome inhibitors, apoptosis of melanoma cell lines (Annexin V FITC flow cytometry). Conditions: RJ002L, MG012, C8161, MUM2B, SK-MeI-28; 1-10 μM; 24 hrs. The method, then: as §2
To assess the effect of proteasome inhibitors on the cell lines, the cells were grown in suitable culture media as described above. Highly proliferating cells (i.e., cells that had reached approximately 30% confluency) were exposed to the inhibitors as described below. The culture media was replenished with media containing proteasome inhibitors at various concentrations and the cells were incubated for 24 hours prior to harvesting the cells for further analysis.
Following treatment with the proteasome inhibitors, the melanoma and melanocyte cell cultures were assayed for apoptotic cells using the APO TARGET Annexin V FITC staining kit (Biosource, Camarillo, Calif.) according to the manufacturer's instructions followed by flow cytometric analysis using FACScaliber (Becton Dickinson, Palo Alto, Calif.) as described in Qin, J. et al., 2001, Nat Med 7: 385-386. In some cases, cell cycle and apoptosis analysis was measured using propidium iodide staining and flow cytometry as described. Cells with DNA content less than the G0 amount of untreated cells were considered apoptotic. For cell analysis, DNA histograms were analyzed using MultiCycle for Windows (Phoenix Flow Systems, San Diego, Calif.) as described in Denning, M. F. et al., 1998, J Biol Chem 273: 29995-30002.

Peptide text beside a SMILES is read from it. * marks the point of attachment. Cbz = O=C(OCc1ccccc1)*

`CCC(C)C(NC(=O)OCc1ccccc1)C(=O)NC(C=O)CC(C)C` (stereo not drawn) [IL-X, cbz-IL-CHO] (Cbz-Ile-Leu-aldehyde; configuration not given here): the “in vitro matrix invasion” value in series [1] was “significantly reduced in vitro matrix invasion”. Further, in the series on Notch-1, the “molecular forms of Notch-1” value is on record as “apparent reduction in all molecular forms of Notch-1”. In addition, the “concentration above which cytotoxic” value in series [2] is reported as “above 100 μM”.

As to `CC(=O)N[C@@H](CSC(=O)[C@]1([C@@H](O)C(C)C)NC(=O)[C@H](C)[C@@H]1O)C(=O)O` [lactacystin], the cells undergoing apoptosis entry with normal melanocytes is “no more than 10%”. Moreover, the figures for the NOXA induction entry with NOXA [3] and in the series with NOXA [4] were “induced high NOXA levels” and “no induction of NOXA in any of the normal melanocytes”, respectively. Also, the “apoptotic response to increasing concentrations” value with melanoma cell lines is given as “significantly enhanced apoptotic responses”.
